A short description of series [1]: Bleach Stability Test (triangle test after storage with perborate and TAED). In kind it is physicochemical. Particulars: number of 20 assessors correctly choosing odd one out; 0.2% material in powder with perborate and TAED, 45° C. one week; up to 9 = bleach-stable, 10 or more = unstable. How it is done:
(i) dosing a perfume material into the standard unperfumed washing powder and incubating the dosed powder at 20° C. in a sealed container for seven days;
(ii) dividing the dosed powder into two portions and adding to each portion sodium perborate tetrahydrate together with either TAED granules or sodium sulphate (to act as an inert filler in place of TAED) to provide test and control formulations having the following constitution: […]
(iii) incubating both test and control powders in sealed containers at 45° C. for a further seven days; and
(iv) assessing samples of the test and control powders according to a standard triangle test as described in "Manual on Sensory Testing Methods" published by the American Society for Testing and Materials (1969), using a panel of 20 assessors, who are instructed to judge by smell which of the three powder samples is the odd one out, the perfume material being designated a bleach-stable deodorant perfume component when the odd one out is correctly identified by no more than 9 of the 20 assessors.
The stability of perfume materials to the presence of a bleaching composition is assessed according to a standard test which involves the exposure of these individual perfume materials to a mixture of sodium perborate tetrahydrate and TAED in a detergent fabric washing powder under standard conditions of storage.
In order to perform this test, a detergent powder base is prepared according to a standard blowing technique to form a granulated product. The formulation of the detergent powder base is as follows: […]
A selected perfume material is then incorporated by mixing with a portion of the blown base powder to a final concentration of 0.2% by weight of the finished product, and stored at 20° C. in a sealed container for one week with occasional mixing to ensure an even concentration of the perfume material throughout the powder. The sample is the split into two portions and further ingredients mixed in to provide the following test and control formulations:
100 g samples of each control and test batch of powder containing a selected perfume material are then sealed in containers and stored at 45° C. for one week. Each sample is then assessed in a forced choice triangle test according to the following procedure:
Three samples of powder, either one from the test batch and two from the control batch, or two from the test batch and one from the control batch are then assessed by a panel of 20 assessors who are asked to select by sniffing which of the three samples is the "odd one out".
The fragrance of samples containing bleach-stable perfume materials should be unchanged following incubation in the presence of the perborate and TAED, and accordingly there is a 1 in 3 chance of an assessor selecting correctly the control or test sample as the "odd one out".
The Triangle Test procedure is described and discussed in "Manual on Sensory Testing Methods" published by the American Society for Testing and Materials (1969).
The results of each Triangle Test are calculated as follows: […]
If 10 or more of the 20 assessors choose correctly the "odd one out" of the three samples, then the perfume material under test is judged to be unstable in the presence of bleach. If, however, up to 9 of the 20 accessors choose correctly the "odd one out" of 3 samples, then the perfume material under test is judged to be stable in the presence of bleach.

A short description of series [2]: Morpholine Test (depression of partial vapour pressure of morpholine, Raoult Variance Ratio). Particulars: morpholine 0.25 g + material 1 g, 37° C., headspace GC.
The target of series [3] is T1, lipoxidase (EC1.13.1.13) (Glycine max, UniProt P08170).
T1 sequence (P08170 1-839): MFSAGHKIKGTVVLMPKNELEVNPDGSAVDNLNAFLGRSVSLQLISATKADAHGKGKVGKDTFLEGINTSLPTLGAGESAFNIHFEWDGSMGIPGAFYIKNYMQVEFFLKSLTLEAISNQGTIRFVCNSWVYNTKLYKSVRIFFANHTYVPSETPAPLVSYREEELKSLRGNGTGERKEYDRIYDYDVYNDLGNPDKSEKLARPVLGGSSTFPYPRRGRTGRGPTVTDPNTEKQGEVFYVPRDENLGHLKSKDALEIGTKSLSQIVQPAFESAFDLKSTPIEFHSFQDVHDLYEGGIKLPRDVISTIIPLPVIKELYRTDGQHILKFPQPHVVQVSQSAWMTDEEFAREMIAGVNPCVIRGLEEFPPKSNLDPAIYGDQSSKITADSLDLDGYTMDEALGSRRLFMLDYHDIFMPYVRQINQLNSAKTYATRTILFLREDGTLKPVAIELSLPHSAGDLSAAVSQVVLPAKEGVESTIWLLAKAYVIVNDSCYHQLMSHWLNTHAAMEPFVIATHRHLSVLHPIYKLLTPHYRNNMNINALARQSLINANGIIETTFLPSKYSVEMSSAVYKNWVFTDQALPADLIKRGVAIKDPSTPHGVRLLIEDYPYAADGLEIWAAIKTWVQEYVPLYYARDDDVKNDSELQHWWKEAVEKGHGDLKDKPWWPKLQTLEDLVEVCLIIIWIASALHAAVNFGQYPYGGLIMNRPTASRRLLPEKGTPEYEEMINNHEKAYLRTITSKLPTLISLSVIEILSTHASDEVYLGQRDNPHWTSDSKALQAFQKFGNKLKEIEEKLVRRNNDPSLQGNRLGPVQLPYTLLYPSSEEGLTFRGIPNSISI
Description: Lipoxidase Test (inhibition of oxidation of linoleic acid by lipoxidase). It is filed as biochemical. Particulars: test substrate made with 0.5% by weight solution of material in ethanol; for inhibition at 0.5 % strength: borate buffer pH 9.0, 234 nm, read-out: LIC value (Lipoxidase-Inhibiting Capacity); for LIC value (Lipoxidase-Inhibiting Capacity): % inhibition, borate buffer pH 9.0, 234 nm.

In series [1], `CC1COCc2cc3c(cc21)C(C)(C)C(C)C3(C)C` (stereo not drawn) [1,3,4,6,7,8-Hexahydro-4,6,6,7,8,8-hexamethyl cyclopenta-α-2-benzopyran] had a BST panel score of 5.

With `CCCCCCCC1CCCC1=O` (stereo not drawn) [2-n-Heptylcyclo-pentanone], the BST panel score in series [1] is 7. Further, the “RVR value (Raoult Variance Ratio)” value in series [2] turned out to be 1.05.

In series [1], `CC1(C)CCCC2(C)C1CCC1(C)OCCC12` (stereo not drawn) [3a-Methyl-dodecahydro-6,6,9a-trimethylnaphtho-2(2,1-b)furan] returned a BST panel score of 5. Moreover, the “RVR value (Raoult Variance Ratio)” value in series [2] came out at 1.30.

Compound `O=C(OCc1ccccc1)c1ccccc1O` [Benzyl salicylate] displayed a BST panel score in series [1] of 17. The “RVR value (Raoult Variance Ratio)” value in series [2] is 1.58.

Compound `Cc1ccc(C(C)C)cc1O` [Carvacrol] showed a BST panel score in series [1] of 6. In series [2], the “RVR value (Raoult Variance Ratio)” value is listed as 1.43.

Consider `OC/C=C/c1ccccc1` [Cinnamic alcohol], for which, in series [1], the BST panel score turned out to be 9. Also, the “RVR value (Raoult Variance Ratio)” value in series [2] is on record as 1.28.

`O=c1ccc2ccccc2o1` [Coumarin] registered a BST panel score in series [1] of 10. The “RVR value (Raoult Variance Ratio)” value in series [2] came to 1.22.

Turning to `CCOC(=O)c1ccccc1C(=O)OCC` [Diethyl phthalate], the BST panel score in series [1] came out at 4. The “RVR value (Raoult Variance Ratio)” value in series [2] was found to be 1.20.

In series [1], `CCOC(=O)c1ccccc1O` [Ethyl salicylate] came in with a BST panel score of 7. Further, the “RVR value (Raoult Variance Ratio)” value in series [2] is recorded as 1.19.

For the compound `CCOc1cc(C=O)ccc1O` [Ethyl vanillin], the BST panel score in series [1] worked out at 12. Further, the “RVR value (Raoult Variance Ratio)” value in series [2] was 1.43.

Take `CCCCCCOC(=O)c1ccccc1O` [Hexyl salicylate]: the BST panel score in series [1] was 5. For the same compound, the inhibition at 0.5 % strength in series [3] is 100%.

With `COC(=O)c1ccccc1N` [Methyl anthranilate], the BST panel score in series [1] stood at 6. Moreover, the inhibition at 0.5 % strength in series [3] amounted to 69%. In addition, the “RVR value (Raoult Variance Ratio)” value in series [2] is 1.20.

`CCCCCCC(CCOC(C)=O)OC(C)=O` (stereo not drawn) [Nonanediol-1,3-diacetate]: the BST panel score in series [1] is 8. In series [2], the “RVR value (Raoult Variance Ratio)” value amounted to 1.17.

For `CCCCCC1CCC(=O)O1` (stereo not drawn) [Nonanolide-1,4], in series [1], the BST panel score was 5. Further, in series [2], the “RVR value (Raoult Variance Ratio)” value came to 0.87.

In series [1], `OCCc1ccccc1` [Phenylethyl alcohol] gave a BST panel score of 10. The “RVR value (Raoult Variance Ratio)” value in series [2] stood at 1.24.

As to `O=C(Cc1ccccc1)OCCc1ccccc1` [Phenylethyl phenyl acetate], the BST panel score in series [1] is 7. Also, in series [2], the “RVR value (Raoult Variance Ratio)” value turned out to be 1.22.

With `CC(C)CCOC(=O)c1ccccc1O` [iso-Amyl salicylate], the BST panel score in series [1] was found to be 9. Further, the “RVR value (Raoult Variance Ratio)” value in series [2] was 1.24.

In series [1], `CC(C)Cc1ccc2ncccc2c1` [iso-Butyl quinoline] returned a BST panel score of 5. The “RVR value (Raoult Variance Ratio)” value in series [2] was 1.10.

In series [1], `C/C=C\c1ccc(O)c(OC)c1` [iso-Eugenol] returned a BST panel score of 4. In series [2], the “RVR value (Raoult Variance Ratio)” value came out at 1.48.

Consider `CC(=O)OC1CCCCC1C(C)(C)C` (stereo not drawn) [o-t-Butylcyclohexyl acetate], for which, in series [1], the BST panel score came to 8. In addition, in series [2], the “RVR value (Raoult Variance Ratio)” value is 1.08.

Turning to `CCC(C)(C)C1CCC(=O)CC1` [p-t-Amyl cyclohexanone], the BST panel score in series [1] is 8. Besides, the “RVR value (Raoult Variance Ratio)” value in series [2] was found to be 1.10.

Take `CC(=O)OC1CCC(C(C)(C)C)CC1` (stereo not drawn) [p-t-Butyl cyclohexyl acetate]: the BST panel score in series [1] turned out to be 10. For the same compound, the “RVR value (Raoult Variance Ratio)” value in series [2] was 0.98.

Consider `CC(C=O)Cc1ccc(C(C)(C)C)cc1` (stereo not drawn) [p-t-Butyl-α-methyl hydrocinnamic aldehyde], for which the BST panel score in series [1] came out at 13.

The compound `CC(=O)C(C)=CC1C(C)=CCCC1(C)C` (stereo not drawn) [α-iso-Methyl ionone] had a BST panel score in series [1] of 7.

`CC(=O)c1ccc2ccccc2c1` [β-Methyl naphthyl ketone] gave a BST panel score in series [1] of 3. Further, the “RVR value (Raoult Variance Ratio)” value in series [2] was 0.96.

Dimyrcetol yielded a BST panel score in series [1] of 9. Moreover, the “LIC value (Lipoxidase-Inhibiting Capacity)” value in series [3] turned out to be 16%. Moreover, the “RVR value (Raoult Variance Ratio)” value in series [2] is reported as 1.22.

Compound Hydroxymethyl isopropyl cyclopentane returned a BST panel score in series [1] of 8. Also, the “LIC value (Lipoxidase-Inhibiting Capacity)” value in series [3] was 60%. Moreover, the “RVR value (Raoult Variance Ratio)” value in series [2] is 1.23.

On to Tetrahydromuguol, for which the BST panel score in series [1] is 8. Moreover, the “LIC value (Lipoxidase-Inhibiting Capacity)” value in series [3] is 24%. Further, in series [2], the “RVR value (Raoult Variance Ratio)” value came to 1.23.

In series [1], i-Nonyl acetate displayed a BST panel score of 4. Besides, the “LIC value (Lipoxidase-Inhibiting Capacity)” value in series [3] stood at 50%. Besides, in series [2], the “RVR value (Raoult Variance Ratio)” value is given as 0.83.

Compound i-Nonyl formate showed a BST panel score in series [1] of 8. Further, in series [3], the “LIC value (Lipoxidase-Inhibiting Capacity)” value is 19%. In addition, the “RVR value (Raoult Variance Ratio)” value in series [2] is 1.49.

The values above are taken from patent publication US4663068A, “Bleach-stable deodorant perfumes in detergent powders” (priority 1983, dated 1987).
